From PubChem BioAssay (NCI)
Where “and” joins values, the source holds several entries; their conditions need not be identical. Equal values may be shown once.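 Assay format: 96-well plates, 48-hour exposure. At the GI50, growth is halved. TGI denotes the concentration required for complete inhibition of growth.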

Legend:
Experiment in all cases: NCI anticancer screen, dose series, 48 h
HCT-15 colon = tested on: HCT-15 colon
HT29 colon = tested on: HT29 colon
NCI-H460 lung = tested on: NCI-H460 lung
OVCAR-4 ovarian = tested on: OVCAR-4 ovarian
OVCAR-5 ovarian = tested on: OVCAR-5 ovarian
OVCAR-8 ovarian = tested on: OVCAR-8 ovarian
SK-MEL-28 melanoma = tested on: SK-MEL-28 melanoma
SW-620 colon = tested on: SW-620 colon
TK-10 renal = tested on: TK-10 renal
UACC-257 melanoma = tested on: UACC-257 melanoma

SMILES | TGI (HCT-15 colon) | TGI (HT29 colon) | TGI (NCI-H460 lung) [µM] | TGI (OVCAR-4 ovarian) [µM] | TGI (OVCAR-5 ovarian) | TGI (OVCAR-8 ovarian) | TGI (SK-MEL-28 melanoma) [µM] | TGI (SW-620 colon) | TGI (TK-10 renal) [µM] | TGI (UACC-257 melanoma) | GI50 (HCT-15 colon) [µM] | GI50 (HT29 colon) [µM] | GI50 (NCI-H460 lung) [µM] | GI50 (OVCAR-4 ovarian) [µM] | GI50 (OVCAR-5 ovarian) [µM] | GI50 (OVCAR-8 ovarian) [µM] | GI50 (SK-MEL-28 melanoma) [µM] | GI50 (SW-620 colon) [µM] | GI50 (TK-10 renal) [µM] | GI50 (UACC-257 melanoma) [µM]
NC(=O)/N=C/c1c(O)c2ccccc2oc1=O | > 100 µM | > 100 µM | > 100 | > 100 | > 100 µM | > 100 µM | > 100 | > 100 µM | > 100 | > 100 µM | – | – | – | – | – | – | – | – | – | –
C/C(=N\NC(N)=S)c1nc2ncccc2[nH]1 | > 100 µM | > 100 µM | > 100 | > 100 | > 100 µM | > 100 µM | > 100 | > 100 µM | > 100 | > 100 µM | – | – | – | – | – | – | – | – | – | –
COC(=O)c1c(O)ccc2c1c1c(n2Cc2cccc(C)c2)C(=O)c2ccccc2C1 | > 75 µM | 19.9 µM | > 75 | 25.3 | > 75 µM | > 75 µM | 0.71 | > 75 µM | > 75 | > 75 µM | – | – | – | – | – | – | – | – | – | –
COC(=O)C12Oc3ccc(-c4ccc5c(c4O)C(O)=C4C(=O)CC(C)C(O)C4(C(=O)OC)O5)c(O)c3C(O)=C1C(=O)CC(C)C2O (stereo not given) | > 100 µM | 0.479 µM | > 100 | > 100 | 2.26 µM | > 100 µM | 0.741 | > 100 µM | 4.46 | 1.34 µM | – | – | – | – | – | – | – | – | – | –
COc1cc(O)c(Cc2ccccc2O)c(O)c1C(=O)CCc1ccccc1 | 19.9 µM | 33.4 µM | 12.2 | 18.5 | 21.8 µM | 28.1 µM | 27.2 | 29.4 µM | – | 16.1 µM | – | – | – | – | – | – | – | – | – | –
COc1ccc2c3/c(=C\c4ccc(N(C)C)cc4)c4ccccc4n3[n+](C)c2c1 | > 100 µM | – | 28.8 | 6.46 | 2.22 µM | 2.33 µM | 2.27 | > 100 µM | 1.32 | 0.424 µM | 0.475 | 0.123 | 0.16 | 0.987 | 0.472 | 0.0474 | 0.173 | 0.0438 | 0.274 | 0.0346
O=C1C(=C([O-])c2ccccc2)C(=O)c2ccccc21.O=C1C(=C([O-])c2ccccc2)C(=O)c2ccccc21.[Ni+2] | > 100 µM | > 100 µM | > 100 | > 100 | > 100 µM | > 100 µM | > 100 | > 100 µM | > 100 | > 100 µM | 47.2 | 77 | 33.9 | 61.6 | 13.4 | 48.1 | 62.2 | 58.9 | > 100 | 83.3
Cn1c(=O)c2[nH]c(SC/C(=N/O)c3ccc(Br)cc3)nc2n(C)c1=O | – | – | – | – | – | – | – | > 100 µM | 3.41 | – | – | – | – | – | – | – | – | > 100 | 1.92 | –
CC1OC(O[C@@H]2C=C3CC[C@@H]4[C@H](CC[C@]5(C)[C@@H](c6ccc(=O)oc6)CC[C@]45O)[C@@]3(C)CC2)C(O)C(OC2OC(CO)C(O)C(O)C2O)C1O (stereo not given in full) | 0.116 µM and 0.0443 µM | 0.0878 µM and 0.349 µM | 0.00143 | 0.00798 | 0.039 µM and 0.0523 µM | 0.0162 µM and 0.0299 µM | 0.0867 | 0.0348 µM and 0.0288 µM | 0.016 | 0.0441 µM and 0.0265 µM | 0.000532 | – | – | – | 0.000256 | – | – | – | – | 0.00126
CC(=O)OCC1OC(N=[N+]=[N-])C(OC(C)=O)C(OC(C)=O)C1OC1OC(COC(C)=O)C(OC(C)=O)C(OC(C)=O)C1OC(C)=O (stereo not given) | > 100 µM | > 100 µM | > 100 | > 100 | > 100 µM | > 100 µM | > 100 | > 100 µM | > 100 | > 100 µM | – | – | – | – | – | – | – | – | – | –
O=c1[nH]c(=O)n(C2CC(O)C(CO)O2)cc1Br (stereo not given) | > 100 µM | > 100 µM | > 100 | > 100 | > 100 µM | > 100 µM | > 100 | > 100 µM | > 100 | > 100 µM | – | – | – | – | – | – | – | – | – | –
Cc1cc(O)c2c(c1)C(C1c3cccc(O)c3C(=O)c3c(O)cc(C)cc31)c1cccc(O)c1C2=O (stereo not given) | 12.3 µM | 7.62 µM | 12.8 | 5.1 | 11.8 µM | 16.1 µM | 12.6 | 12.9 µM | 20.6 | 1.25 µM | – | – | – | – | – | – | – | – | – | –
C=C1CCOC2(C(O)C(C)(O)CO)NC(=O)C1(O)NC2=O (stereo not given) | > 100 µM | > 100 µM | > 100 | > 100 | > 100 µM | > 100 µM | > 100 | > 100 µM | > 100 | > 100 µM | – | – | – | – | – | – | – | – | – | –
